Assay results from patent US20240082296A1, “TREATMENT OF MUSCLE ATROPHY USING DEXTRAN SULFATE” (TX MEDIC AB, priority 2020, published 2024).

How the values were obtained:
ALS patients = experiment: serum metabolites by HPLC pre- and post-treatment in ALS patients (Example 3); type: in vivo, human
Source text: The objective of this Example was to evaluate the effect of repeated dextran sulfate administration on the concentrations of serum metabolites in serum samples from a cohort of Swedish ALS patients who had participated in the trial entitled ‘A single-centre, open single-arm study where the safety, tolerability and efficacy of subcutaneously administered ILB® will be evaluated in patients with Amyotrophic Lateral Sclerosis’. Using a longitudinal design, this study aimed to determine the changes of selected serum metabolites in each ALS patient before and after weekly dextran sulfate treatment. Changes in the measured metabolites indicate the biochemical response of the patient to dextran sulfate that is underpinning potential disease modification and the mechanisms of action of the drug in this patient population.
After an initial screening visit, patients had five weekly dosing of a single dextran sulfate (ILB®, Tikomed AB, Viken, Sweden, WO 2016/076780) injection of 1.0 mg/kg body weight in saline into the subcutaneous fat of the lower abdomen.
Peripheral venous blood samples were been collected from the patients after at least 15 minutes of complete rest, using the standard tourniquet procedure, from the antecubital vein into a single VACUETTE® polypropylene tube containing serum separator and clot activator (Greiner-Bio One GmbH, Kremsmunster, Austria). After 30 minutes at room temperature, blood withdrawals were centrifuged at 1,890×g for 10 min and the resulting serum samples were stored at −20° C. until analysis.
(§1) After defrost, an aliquot of 500 μl of each serum sample was supplemented with 1 ml of HPLC-grade acetonitrile, vortexed for 60 seconds, centrifuged at the maximum speed in a top-bench centrifuge to precipitate proteins. Supernatants were washed with large volumes of HPLC-grade chloroform to remove organic solvent, centrifuged and the upper aqueous phases were transferred in different tubes, clearly labeled to identify the sample and stored at −80° C. until analyzed to determine different water-soluble compounds.
A second aliquot of about 300 μl of each serum sample was light-protected and then processed to extract fat-soluble antioxidants using a method described in detail elsewhere (Lazzarino et al., Single-step preparation of selected biological fluids for the high performance liquid chromatographic analysis of fat-soluble vitamins and antioxidants. J Chromatogr A. 2017; 1527: 43-52.). Briefly, samples were supplemented with 1 ml of HPLC-grade acetonitrile, vigorously vortexed for 60 s and incubated at 37° C. for 1 h in a water bath under agitation, to allow the full extraction of lipid soluble compounds. Samples were then centrifuged at 20,690×g for 15 min at 4 C to precipitate proteins and the clear supernatants were saved at −80° C. until the HPLC analysis of fat-soluble vitamins and antioxidants.
In deproteinized serum samples, the following water-soluble compounds were separated and quantified by HPLC, according to methods described elsewhere (Tavazzi et al., Simultaneous high performance liquid chromatographic separation of purines, pyrimidines, N-acetylated amino acids, and dicarboxylic acids for the chemical diagnosis of inborn errors of metabolism. Clin Biochem. 2005; 38: 997-1008; Romitelli et al., Comparison of nitrite/nitrate concentration in human plasma and serum samples measured by the enzymatic batch Griess assay, ion-pairing HPLC and ion-trap GC-MS: The importance of a correct removal of proteins in the Griess assay. J Chromatogr B Analyt Technol Biomed Life Sci. 2007; 851: 257-267; Amorini et al., Metabolic profile of amniotic fluid as a biochemical tool to screen for inborn errors of metabolism and fetal anomalies. Mol Cell Biochem. 2012; 359: 205-216): hypoxhantine, xanthine, uric acid, malondialdehyde (MDA), nitrite, nitrate, N-acetylaspartate (NAA), citrulline (CITR), alanine (ALA), and ornithine (ORN). […]

patients with ALS = experiment: Phase IIa trial in ALS patients: serum myoglobin and creatine kinase (Example 2); type: in vivo, human
Protocol: A clinical trial in the form of a Phase IIa, single-center, open label, single-arm study where the safety, tolerability and possible efficacy of subcutaneously administered dextran sulfate was evaluated in patients with ALS of intermediate progression rate. The clinical trial was conducted at the Sahlgrenska University Hospital, Gothenburg, Sweden and was overseen and approved by the Ethics Committee of the University of Gothenburg and by the Swedish Medical Products Agency.
Dextran sulfate (Tikomed AB, Viken, Sweden, WO 2016/076780) was administered at 1 mg/kg by […] subcutaneous injection once a week for five weeks to 13 human patients suffering from ALS.
Blood samples were drawn at defined study intervals by a venous catheter into vacutainer tubes. Laboratory analyses of blood plasma were performed immediately after collection by the Clinical Chemistry Laboratory at the Sahlgrenska University Hospital.

[1] = test system: human patients suffering from ALS; experiment: ALSAQ-40 ADL and PM sub-scores in ALS patients (Example 1); type: in vivo
Protocol: (§2) Dextran sulfate (Tikomed AB, Viken, Sweden, WO 2016/076780) was administered at 2 mg/kg by […] subcutaneous injection once a week for ten weeks to 8 human patients suffering from ALS.
ALSAQ-40 was assessed pre-treatment and weekly thereafter for the 10 treatment weeks and for the visits at the follow-up period.
The ALSAQ-40 sub-scores entitled ‘Activities of Daily Living/Independence’ (ADL) and ‘Physical Mobility’ (PM) reflect the patients' view of their level of physical activity and independence. A falling score reflects improved physical activity.

[2] = test system: human patients suffering from ALS; experiment: serum lactate in ALS patients before and after dextran sulfate (Example 1); type: in vivo; conditions: 2 mg/kg s.c. once a week; for serum lactate levels: week 0: 1.78±0.59
Source text: Using a longitudinal design, this study was aimed to determine the changes of selected serum metabolites in ALS patients before dextran sulfate administration and after different times following the beginning of the treatment. Changes in the measured metabolites indicated the biochemical response of the patient to dextran sulfate that is underpinning potential disease modification and the mechanisms of action of the drug in this ALS patient population.
as §2
Peripheral venous blood samples were collected from patients before (week 0) and after dextran sulfate administration (week 5 and week 10) after at least 15 minutes of complete rest, using the standard tourniquet procedure, from the antecubital vein into a single VACUETTE® polypropylene tube containing serum separator and clot activator (Greiner-Bio One GmbH, Kremsmunster, Austria). After 30 mins at room temperature (20-25° C.), blood withdrawals were centrifuged at 1,890×g for 10 min to get serum aliquots.
as §1, with “A serum aliquot” for “After defrost, an aliquot”, “μl” for “μl of each serum sample”, “60 secs,” for “60 seconds,”, “transferred to” for “transferred in”

[3] = post- vs pre-treatment, five weekly 1.0 mg/kg s.c.

dextran sulfate
serum CITR (ALS patients; [3]): ameliorated | serum MDA (ALS patients; [3]): decreased | serum NAA (ALS patients; [3]): Significantly lower | serum ORN/CITR ratio (ALS patients; [3]): ameliorated | serum nitrate (ALS patients; [3]): decreased | serum nitrite+nitrate (ALS patients; [3]): decreased | serum sum of oxypurines (hypoxanthine+xanthine+uric acid) (ALS patients; [3]): decreased | serum uric acid (ALS patients; [3]): decreased | serum α-tocopherol (ALS patients; [3]): ameliorated | serum γ-tocopherol (ALS patients; [3]): ameliorated | circulating values of ALA (ALS patients; post-treatment, equal to controls, significantly lower than pre-treatment): normalized | reduction in serum creatine kinase levels (patients with ALS; after 4 weeks): 13.3% | reduction in serum myoglobin levels (patients with ALS; after 4 weeks vs Day 1): 30% | serum myoglobin levels (patients with ALS; after 4 weeks, 1 mg/kg s.c. once a week, Day 1: 133.92±126.28, p=0.021): 103.69 ± 72.16 µg/L | serum creatine kinase levels (patients with ALS; after 4 weeks, 1 mg/kg s.c. once a week, before 7.15±5.74, p<0.05): 6.2±5.08 μkat/L | decline of ALSAQ-40 ADL sub-score ([1]; after 10 weeks of treatment): 18.6% | decline of ALSAQ-40 PM sub-score ([1]; after 10 weeks of treatment): 16% | ALSAQ-40 PM sub-score ([1]; after 10 weeks, pre-treatment 27.2±22.2): 22.7±20.2 | ALSAQ-40 ADL sub-score ([1]; after 10 weeks, pre-treatment 58.9±21.4, p<0.05, falling score = improved): 44.4±24.7 | increase of serum lactate levels ([2]; after 5 weeks vs week 0): 29.8% | serum lactate levels ([2]; after 5 weeks, p<0.01): 2.31 ± 1.02 mM | increase of serum lactate levels ([2]; after 10 weeks vs week 0): 70% | serum lactate levels ([2]; after 10 weeks): 3.02 ± 1.59 mM
